Data published in patent publication EP4810492A1, “NMT INHIBITOR, PREPARATION METHOD THEREFOR, AND USE THEREOF” (Nanjing Synnocare Pharmaceutical Technology Co., Ltd., priority 2023, dated 2025).
Where two headings read alike, the source gives them in different places.

Columns and labels:
[1] = Body weight of MV-4-11 xenograft model mice (tolerability); assay type: in vivo; settings: female BALB/c nude mice, PO QD 30 mg/kg; for Body weight: Figure 1
Excerpt: (§1) To evaluate the effect of the compounds of the present invention on tumor growth, an MV-4-11 human myelomonocytic leukemia xenograft mouse model was established. Female BALB/c nude mice were procured from Shanghai Jihui Laboratory Animal Care Co., Ltd. Upon arrival, the mice were 6-7 weeks old and weighed 18-22 g. They were housed in specific pathogen-free (SPF) individually ventilated cages (IVC) at a density of 2-6 mice per cage, with ad libitum access to standard diet and water. The housing environment was maintained at 20 - 26 °C (68 - 79 °F) with a relative humidity of 40-70%, under a 12-hour light/dark cycle (lights on from 05:00 to 17:00). The study commenced after a one-week acclimatization period.
(§2) Human myelomonocytic leukemia MV-4-11 cells (ATCC, CRL-9591) were maintained in suspension culture using IMDM medium (Gibco, 12440-053) supplemented with 10% heat-inactivated fetal bovine serum (FBS; Gibco, 10099-141C) at 37 °C in a 5% CO2 atmosphere. Cells were passaged 2-3 times per week. Upon reaching the exponential growth phase, cells were harvested, counted, and inoculated subcutaneously into the right dorsal flank of female nude mice. Each mouse received a 200 µL suspension containing 8 × 10^6 MV-4-11 cells (100 µL cell suspension + 100 µL Matrigel basement membrane matrix, Corning, 354234). Thirteen days post-inoculation, when subcutaneous tumor volumes reached 100 - 300 mm^3 , tumor-bearing mice with appropriate morphology and uniform size were selected. Using stratified randomization, mice were assigned to experimental groups (n = 5 per group). Oral administration (PO, once daily [QD]) was initiated on the day of grouping, with all compounds of the present invention dosed at 30 mg/kg. During the dosing period, tumor diameters were measured twice weekly using digital calipers, and body weights were recorded. In the posttreatment observation period, tumor diameters and body weights were measured once weekly. Tumor volume (V) was calculated using the formula: V = 0.5 *a * b^2 , where a represents the long diameter and b represents the short diameter of the tumor.
(§3) The anti-tumor efficacy of the compounds was evaluated using the tumor growth inhibition percentage (TGI%), calculated by the formula: TGI(%) = [1 - (TVi - TV0) / (TVVi - TVV0)] *100%, where TV0 and TVV0 represent the mean tumor volumes on day 0 for the treatment and control groups, respectively, and TVi and TVVi represent the mean tumor volumes on day i for the treatment and control groups, respectively. Data were plotted using GraphPad Prism software. Tumor volume and body weight data are expressed as mean ± SEM and plotted as a function of time.

[2] = Plasma concentrations in mice following oral administration; settings: for concentration at 1 h / concentration at 4 h / concentration at 8 h: ICR, mouse, po, 10 mg/kg
Excerpt: This study evaluated the plasma concentrations of the compounds of the present invention in mice. ICR mice were procured from JOINN Laboratories (Suzhou) Co., Ltd. At the initiation of dosing, the animals were 6-8 weeks old and weighed 18-25 g. Mice were housed in transparent plastic cages (400 mm*240 mm*200 mm). The animal facility maintained a 12-hour light/12-hour dark cycle (lights on 07:00-19:00) using fluorescent lighting. The dark period may be intermittently interrupted as required for study-related activities. Ambient temperature and relative humidity were controlled within 20-26 °C and 40-70%, respectively. Animals were fed certified rodent chow and provided with drinking water filtered and sterilized through an ultrapure water system. All animals had ad libitum access to water throughout the study. Animals were fasted for at least 12 hours prior to dosing, and food was restored 4 hours post-dosing.
Prior to dosing, body weights were recorded, and healthy animals with similar weights were selected and randomly assigned to groups (n = 3 per group) based on body weight. The compounds were formulated in a 0.5% aqueous carboxymethyl cellulose (CMC) solution and administered orally at a single dose of 10 mg/kg. Blood samples (≥0.2 mL) were collected via venipuncture at 1 h and 4 h post-dose into EDTA-K2 anticoagulant tubes. Tubes were gently inverted to mix, immediately placed in an ice-water bath, and rapidly centrifuged at 4,000 rpm for 10 min at 4 °C to separate plasma. Plasma was stored at -70 °C until analysis.
Calibration curve and QC plasma samples: Working solutions for the calibration curve and QC samples were prepared using 80% methanol in water (Thermo Fisher) as the diluent. To prepare plasma calibration standards and QC samples, 5 µL of each working solution was added to 45 µL of blank plasma and mixed. To the prepared calibration and QC samples, 300 µL of internal standard solution (tolbutamide at 8 µg/mL in acetonitrile, Thermo Fisher) was added. […] The supernatant was collected and analyzed by liquid chromatography-tandem mass spectrometry (LC-MS/MS; AB Sciex API 5000).
Plasma sample pretreatment: After thawing at room temperature, 50 µL of each plasma sample was mixed with 300 µL of the internal standard solution (tolbutamide at 8 µg/mL in acetonitrile, Thermo Fisher). […] The supernatant was collected and analyzed by LC-MS/MS (AB Sciex API 5000).
Raw chromatograms, concentrations, and accuracy data were generated using Analyst software version 1.6.3.

MV-4-11 tumors = assay: In vivo anti-tumor efficacy in MV-4-11 xenograft mouse model; settings: female BALB/c nude mice, PO QD 30 mg/kg, Figure 2
Excerpt: as §1, §2, §3

NMT1 enzyme = target: T1, NMT1 enzyme (Homo sapiens, UniProt P30419); assay: Inhibitory activity on NMT1 enzyme catalysis (fluorescence intensity assay); assay type: biochemical
T1 sequence (P30419 1-496): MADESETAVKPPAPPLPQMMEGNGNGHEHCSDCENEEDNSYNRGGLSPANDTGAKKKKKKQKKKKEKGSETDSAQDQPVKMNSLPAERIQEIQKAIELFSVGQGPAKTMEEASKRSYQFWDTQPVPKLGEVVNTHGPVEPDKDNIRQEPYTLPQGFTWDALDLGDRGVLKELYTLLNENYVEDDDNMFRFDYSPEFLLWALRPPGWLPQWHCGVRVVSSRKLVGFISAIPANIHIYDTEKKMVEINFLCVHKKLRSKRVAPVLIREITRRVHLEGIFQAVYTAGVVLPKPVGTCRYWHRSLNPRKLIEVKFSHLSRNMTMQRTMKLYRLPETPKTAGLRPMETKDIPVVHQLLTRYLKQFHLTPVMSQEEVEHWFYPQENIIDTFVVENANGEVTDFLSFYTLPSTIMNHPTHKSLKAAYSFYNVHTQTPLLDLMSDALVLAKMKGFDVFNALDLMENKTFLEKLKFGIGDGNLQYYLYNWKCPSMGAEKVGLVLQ
Protocol: This study evaluated the ability of the compounds of the invention to inhibit NMT1 catalytic activity in vitro. […] The final concentration of the NMT1 enzyme was 6 nM, the final concentration of CPM (Reactive thiol fluorescence probe, Invitrogen, D346) was 1 µM, the final concentration of HSPP60 SRC was 20 µM, and the final concentration of DMSO was 0.5%.
Compounds were dissolved in DMSO to obtain 10 mM stock solutions. Dose-response solutions were prepared with a top endpoint compound concentration of 3 mM, followed by three-fold serial dilutions in DMSO, totaling ten data points. […] Then, 2.5 µL of the NMT1 enzyme working solution was added to the 384-well assay plate, followed by incubation at 25 °C for 10 minutes. Subsequently, 5 µL of the CPM and myristoyl-CoA working solution was added, the plate was centrifuged at 1000 rpm for 1 minute, and then 2.5 µL of the HSPP60 SRC working solution was added to initiate the reaction. The reaction was incubated at 25 °C for 45 minutes.
The IC50 curve of the compounds was fitted using the software XLfit 5.5.0 according to the nonlinear regression equation.

MV-4-11 cells = assay: Anti-proliferative activity against MV-4-11 cells (cell viability chemiluminescence); assay type: cell-based; settings: MV4-11, 72 h, MV-4-11 human monocytic leukemia cells, three days of exposure
Protocol: This study utilized a cell proliferation assay to analyze the cytotoxicity of MV-4-11 human monocytic leukemia cells after three days of exposure to NMT1 inhibitors. The MV-4-11 cell line was purchased from Nanjing Cobuilder Biotechnology Co., Ltd., and cultured in IMDM medium (Viva cell) in an incubator (Thermo) at 37 °C with 5% CO2. In this experiment, NMT1 inhibitors were dissolved in DMSO to obtain 600 µM stock solutions. Dose-response solutions were prepared with a top endpoint compound concentration of 3 µM, followed by three-fold serial dilutions in DMSO, totaling eight data points. The final concentration of DMSO was 0.5%.
MV-4-11 cells were seeded into a white 96-well plate, 80 µL of cell suspension per well, containing 6000 MV-4-11 cells. The cell plate was placed in the CO2 incubator for overnight culture. Then, 20 µL of NMT1 inhibitor solutions at different concentrations were added to the wells. The 96-well plate was placed back into the incubator for three days. Another cell plate was prepared, and the signal was read on the day of drug addition to serve as the maximum value (Max value in the equation below) for data analysis. To this cell plate, 25 µL of cell viability chemiluminescence detection reagent was added per well, followed by incubation at room temperature for 10 minutes to stabilize the luminescence signal. A multi-label analyzer was used for reading.
The raw data were converted into inhibition rates using the equation (Sample - Min) / (Max - Min) * 100%. The IC50 values were then determined by fitting a four-parameter curve (using the "log(inhibitor) vs. response - Variable slope" model in GraphPad Prism). Min: wells treated with 0.5% DMSO; Max: Day 0 wells. Table 1 provides the inhibitory activity of the compounds of the invention on MV-4-11 cell proliferation. Table 1: Compound Inhibitory Activity against NMT1 Enzyme (IC50) and Anti-proliferative Activity against MV-4-11 Cell line (IC50)

[3] = 6 nM NMT1 enzyme, 1.25 µM myristoyl-CoA, 20 µM HSPP60 SRC peptide, 45 minutes at 25 °C, read-out: NMT1 (IC50)

Row | SMILES | Body weight [1] | concentration at 1 h [2] | concentration at 4 h [2] | concentration at 8 h [2] | Tumor volume / growth of MV-4-11 tumors (MV-4-11 tumors) | IC50 (NMT1 enzyme; [3]) | IC50 (MV-4-11 cells) | 1 h Concentration ([2]; ICR mice, oral single dose of 10 mg/kg in 0.5% CMC, 1 h post-dose, Mean ± SEM, n = 3) | 4 h Concentration ([2]; ICR mice, oral single dose of 10 mg/kg in 0.5% CMC, 4 h post-dose, Mean ± SEM, n = 3) | 8 h Concentration ([2]; ICR mice, oral single dose of 10 mg/kg in 0.5% CMC, 8 h post-dose, Mean ± SEM, n = 3) | IC50 (NMT1 enzyme) | IC50 (MV-4-11 cells; Homo sapiens) | Weight loss ([1]; later phase)
1 | CCc1nn(C)c(C)c1NS(=O)(=O)c1c(Cl)cc(-c2ccc3sc4c(c3c2)CNCC4)cc1Cl [Compound 2] | slight decrease in body weight during the early phase of dosing, which subsequently returned to normal | 2890 ± 858 ng/mL | 1960 ± 190 ng/mL | 915 ± 97 ng/mL | significantly inhibited the growth of MV-4-11 tumors and induced tumor regression | 3.09 nM | 5.43 nM | – | – | – | – | – | –
2 | Cc1c(NS(=O)(=O)c2c(Cl)cc(-c3ccc4sc5c(c4c3)CNCC5)cc2Cl)c(CC(C)C)nn1C [Compound 3] | no weight loss throughout the study | 2407 ± 21 ng/mL | 1980 ± 417 ng/mL | 1140 ± 551 ng/mL | significantly inhibited the growth of MV-4-11 tumors and induced tumor regression | 3.45 nM | 15 nM | – | – | – | – | – | –
3 | Cc1c(NS(=O)(=O)c2c(Cl)cc(-c3ccc4sc5c(c4c3)CNCC5)cc2Cl)c(CC#N)nn1C [Compound 13] | no weight loss throughout the study | – | – | – | significantly inhibited the growth of MV-4-11 tumors and induced tumor regression | – | – | 1893 ± 196 ng/mL | 623 ± 109 ng/mL | 334 ± 83 ng/mL | 3.21 nM | 19.3 nM | –
4 | Cc1c(NS(=O)(=O)c2c(Cl)cc(-c3ccc4oc5c(c4c3)CNCC5)cc2Cl)c(CC(C)C)nn1C [Compound 45] | slight weight loss in the later phase | 2970 ± 855 ng/mL | 3260 ± 876 ng/mL | 1960 ± 467 ng/mL | significantly inhibited the growth of MV-4-11 tumors and induced tumor regression | 5.38 nM | 43.7 nM | – | – | – | – | – | ≤ 10%
